{"source": "paper PMC11170914", "about": "“A distinct dimer configuration of a diatom Get3 forming a tetrameric complex with its tail-anchored membrane cargo” (BMC Biology, 2024)", "target": "T1, Pt-Get3a (Phaeodactylum tricornutum, UniProt B7G933)", "T1 construct": "gene PHATRDRAFT_22896; full length, residues 1-349; expressed in E. coli; N-terminal 6His tag cleaved by TEV protease", "T1 sequence (B7G933 1-349)": "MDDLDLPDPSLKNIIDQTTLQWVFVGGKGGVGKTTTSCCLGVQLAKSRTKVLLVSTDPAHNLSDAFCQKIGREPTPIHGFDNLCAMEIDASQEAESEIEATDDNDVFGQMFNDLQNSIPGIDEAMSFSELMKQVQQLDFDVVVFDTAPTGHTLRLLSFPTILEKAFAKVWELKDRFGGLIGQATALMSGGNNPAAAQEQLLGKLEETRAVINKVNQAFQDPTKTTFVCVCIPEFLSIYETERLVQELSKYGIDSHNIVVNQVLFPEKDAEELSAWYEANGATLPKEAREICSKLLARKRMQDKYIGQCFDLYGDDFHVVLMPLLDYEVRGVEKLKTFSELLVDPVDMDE", "assay": "X-ray crystallography, […] Å", "details": "co-crystal with 2 mM ADP, 2 mM MgCl2, 2 mM AlCl3, 8 mM NaF, pH 4.7, 25 °C; Mg2+/ADP in nucleotide-binding domain"}
{"smiles": "Nc1ncnc2c1ncn2[C@@H]1O[C@H](COP(=O)(O)OP(=O)(O)O)[C@@H](O)[C@H]1O", "note": "[ADP]", "values": [{"measurement": "X-ray crystallography, 2.32 Å", "value": "an ADP and a magnesium ion were observed in the two crystallographic independent monomers"}]}
